# Measured values published in patent publication US10800792B2, “Inhibitors of Bruton's tyrosine kinase and method of their use” (JANSSEN PHARMACEUTICA NV, priority 2015, dated 2020).
# Read-outs that look alike come from different tables or passages of the source.
# Target: unphosphorylated-BTK kinase domain (UP-BTK), GST-tagged human BTK (389-659aa) (Homo sapiens (Human), UniProt Q06187)
# Experiment: BTK kinase Lanthascreen binding assay
# Settings: pIC50 = negative log of the IC50 in molar; for IC50: read-out: BTK_I_binding pIC50 (converted)
# Experimental: BTK Kinase Lanthascreen Binding Assay:
# A BTK kinase lanthascreen binding assay monitors compound binding to unphosphorylated-BTK kinase domain (UP-BTK), by competing with a fluorescent labeled tracer. […] Data were analyzed using Xlfit™ version 5.3 from ID Business Solutions (Guildford), Microsoft Excel add-in. pIC50 refers to the negative log of the IC50 in molar
# [1] = 60 minutes incubation, 50 nM Tracer 236
# [2] = unphosphorylated-BTK kinase domain, 50 nM Tracer 236, 60 minutes
# [3] = Lanthascreen tracer competition, 60 minutes incubation
# Chain of unphosphorylated-BTK kinase domain (UP-BTK), GST-tagged human BTK (389-659aa) (Q06187 389-659): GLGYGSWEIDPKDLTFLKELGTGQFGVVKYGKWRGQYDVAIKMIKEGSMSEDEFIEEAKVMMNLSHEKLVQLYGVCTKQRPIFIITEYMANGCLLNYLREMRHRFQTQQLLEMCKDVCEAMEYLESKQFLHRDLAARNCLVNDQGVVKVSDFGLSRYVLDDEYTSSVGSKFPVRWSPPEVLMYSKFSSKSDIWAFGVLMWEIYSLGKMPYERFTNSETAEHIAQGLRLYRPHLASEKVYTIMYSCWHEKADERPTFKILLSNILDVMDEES
smiles,measurement,setting,value
"C=CC(=O)N1C[C@@H](O)C[C@@H](NC(=O)c2sc3nccc4c3c2NC(=O)N4c2ccc(Oc3ccccc3)cc2C)C1 [Example 13, N-((3R,5S)-1-Acryloyl-5-hydroxypiperidin-3-yl)-5-(2-methyl-4-phenoxyphenyl)-4-oxo-4,5-dihydro-3H-1-thia-3,5,8-triazaacenaphthylene-2-carboxamide]",IC50,[1],15.8 nM
"C=CC(=O)N1CCC[C@@H](NC(=O)c2sc3nccc4c3c2NC(=O)N4c2ccc(Oc3ccccc3)nn2)C1 [Example 121, (R)—N-(1-Acryloylpiperidin-3-yl)-4-oxo-5-(6-phenoxypyridazin-3-yl)-4,5-dihydro-3H-1-thia-3,5,8-triazaacenaphthylene-2-carboxamide]",BTK_I_binding pIC50,[1],6.7
"Cc1ccccc1N1C(=O)Nc2c(C(=O)N[C@@H]3CCCN(C)C3)sc3nccc1c23 [Example 352, (R)—N-(1-Methylpiperidin-3-yl)-4-oxo-5-(o-tolyl)-4,5-dihydro-3H-1-thia-3,5,8-triazaacenaphthylene-2-carboxamide]",BTK_I_binding pIC50,[2],<5
"O=C(N[C@@H]1CCCNC1)c1sc2nccc3c2c1NC(=O)N3c1ccc(OC2CCC2)cc1 [Example 626, (R)-5-(4-Cyclobutoxyphenyl)-4-oxo-N-(piperidin-3-yl)-4,5-dihydro-3H-1-thia-3,5,8-triazaacenaphthylene-2-carboxamide]",IC50,[3],1260 nM
"C=CC(=O)N1CCC[C@@H](NC(=O)c2sc3nccc4c3c2NC(=O)N4c2ccnc(-c3ccccc3)c2)C1 [Example 512, (R)—N-(1-Acryloylpiperidin-3-yl)-4-oxo-5-(2-phenylpyridin-4-yl)-4,5-dihydro-3H-1-thia-3,5,8-triazaacenaphthylene-2-carboxamide]",BTK_I_binding pIC50,[2],7.8
"COCC(=O)N1CCC[C@@H](NC(=O)c2sc3nccc4c3c2NC(=O)N4c2ccc(Oc3ccccc3)cc2C)C1 [Example 95, (R)—N-(1-(2-Methoxyacetyl)piperidin-3-yl)-5-(2-methyl-4-phenoxyphenyl)-4-oxo-4,5-dihydro-3H-1-thia-3,5,8-triazaacenaphthylene-2-carboxamide]",BTK_I_binding pIC50,[1],7.4
"O=C(N[C@@H]1CCCNC1)c1sc2nccc3c2c1NC(=O)N3c1cc(-c2ccccc2)cnn1 [Example 755, (R)-4-Oxo-5-(5-phenylpyridazin-3-yl)-N-(piperidin-3-yl)-4,5-dihydro-3H-1-thia-3,5,8-triazaacenaphthylene-2-carboxamide]",BTK_I_binding pIC50,[3],<6
"Cc1cc(Oc2ccccc2)ccc1N1C(=O)Nc2c(C(=O)N[C@@H]3CCCN(C(=O)CN4CCCCC4)C3)sc3nccc1c23 [Example 393, (R)-5-(2-Methyl-4-phenoxyphenyl)-4-oxo-N-(1-(2-(piperidin-1-yl)acetyl)piperidin-3-yl)-4,5-dihydro-3H-1-thia-3,5,8-triazaacenaphthylene-2-carboxamide]",BTK_I_binding pIC50,[2],6.8
"O=C(N[C@@H]1CCCNC1)c1sc2nccc3c2c1NC(=O)N3c1ccc(Oc2ccccc2)cc1F [Example 107, (R)-5-(2-Fluoro-4-phenoxyphenyl)-4-oxo-N-(piperidin-3-yl)-4,5-dihydro-3H-1-thia-3,5,8-triazaacenaphthylene-2-carboxamide]",BTK_I_binding pIC50,[1],7.5
"C=CC(=O)N1CC[C@@H](NC(=O)c2sc3nccc4c3c2NC(=O)N4c2ccc(C)cc2C)C1 [Example 304, (R)—N-(1-Acryloylpyrrolidin-3-yl)-5-(2,4-dimethylphenyl)-4-oxo-4,5-dihydro-3H-1-thia-3,5,8-triazaacenaphthylene-2-carboxamide]",BTK_I_binding pIC50,[2],6.0
"N#C/C(=C\C1CC1)C(=O)N1CCC[C@@H](NC(=O)c2sc3nccc4c3c2NC(=O)N4c2ccnc(-c3ccccc3)c2)C1 [Example 559, (R,E)-N-(1-(2-Cyano-3-cyclopropylacryloyl)piperidin-3-yl)-4-oxo-5-(2-phenylpyridin-4-yl)-4,5-dihydro-3H-1-thia-3,5,8-triazaacenaphthylene-2-carboxamide]",BTK_I_binding pIC50,[2],8.2
